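Results reflect a 48-hour exposure of cells in 96-well plates to compound at five concentrations. At the GI50, growth is halved.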 Activity calls are given as the source filed them. Cut-off read from the data, not from the text of the source: active = GI50 up to about 1.1 µM and inactive = higher.
Legend:
Experiment in all cases: NCI anticancer screen, dose series, 48 h
[1] = system: 786-0
[2] = system: A498
[3] = system: HCT-116
[4] = system: HCT-15
[5] = system: HOP-62
[6] = system: IGROV-1
[7] = system: K562
[8] = system: MCF7
[9] = system: MDA-MB-435
[10] = system: MDA-N
[11] = system: NCI-H226
[12] = system: NCI-H460
[13] = system: NCI/ADR-RES
[14] = system: OVCAR-3
[15] = system: OVCAR-5
[16] = system: SK-MEL-2
[17] = system: SNB-19
[18] = system: UACC-257
[19] = system: SK-MEL-28

Row | Compound | GI50 [1] | GI50 [2] | GI50 [3] | GI50 [4] | GI50 [5] | GI50 [6] | GI50 [7] | GI50 [8] | GI50 [9] | GI50 [10] | GI50 [11] | GI50 [12] | GI50 [13] | GI50 [14] | GI50 [15] | GI50 [16] | GI50 [17] | GI50 [18] | GI50 [19]
1 | CC(=O)N1C(C(=O)NC2CCCCC2)CSC1c1ccccc1 (stereo not given) | > 100 µM (inactive) | > 100 µM (inactive) | > 100 µM (inactive) | > 100 µM | > 100 µM (inactive) | > 100 µM (inactive) | > 100 µM (inactive) | > 100 µM (inactive) | > 100 µM (inactive) | > 100 µM (inactive) | 51.6 µM (inactive) | > 100 µM (inactive) | > 100 µM (inactive) | > 100 µM (inactive) | > 100 µM (inactive) | > 100 µM (inactive) | > 100 µM (inactive) | > 100 µM (inactive) | 
2 | CC(Nc1cc(Cl)cc(Cl)c1)c1ccncc1 (stereo not given) | 26.2 µM (inactive) | 23.3 µM (inactive) | 14.8 µM (inactive) | 29.1 µM | 15.8 µM (inactive) | 15.4 µM (inactive) | 13.6 µM (inactive) | 16.2 µM (inactive) | 22.2 µM (inactive) | 21.3 µM (inactive) | 11.5 µM (inactive) | 16.9 µM (inactive) | 20.5 µM (inactive) | 16.6 µM (inactive) | 16.2 µM (inactive) | > 10 µM (inactive) | 33.8 µM (inactive) | 22.8 µM (inactive) | 30.6 µM (inactive)
3 | Cc1nc2ccc(Br)cc2c(=O)n1-c1ccc(N)cc1 | > 100 µM (inactive) | > 100 µM (inactive) | > 100 µM (inactive) | > 100 µM | > 100 µM (inactive) | > 100 µM (inactive) | > 100 µM (inactive) | > 100 µM (inactive) | > 100 µM (inactive) | > 100 µM (inactive) | > 100 µM (inactive) | > 100 µM (inactive) | > 100 µM (inactive) | > 100 µM (inactive) | > 100 µM (inactive) | > 100 µM (inactive) | > 100 µM (inactive) | > 100 µM (inactive) | > 100 µM (inactive)
4 | O=[N+]([O-])c1cc2ccc1OCc1cccc(n1)COc1ccc(cc1[N+](=O)[O-])/C=N\CCCCCCCC/N=C\2 | > 100 µM (inactive) | > 100 µM (inactive) | > 100 µM (inactive) | > 100 µM | > 100 µM (inactive) | > 100 µM (inactive) | > 100 µM (inactive) | > 100 µM (inactive) | > 100 µM (inactive) | > 100 µM (inactive) | > 100 µM (inactive) | > 100 µM (inactive) | > 100 µM (inactive) | > 100 µM (inactive) | > 100 µM (inactive) | > 100 µM (inactive) | > 100 µM (inactive) | > 100 µM (inactive) | > 100 µM (inactive)
5 | COc1cccc(/N=N/C(=N/NC(=O)c2cc(Cl)ccc2O)c2ccc(N(CCC#N)CCC#N)cc2C)c1 | 43.3 µM (inactive) | 26.4 µM (inactive) | 18.8 µM (inactive) | 33.3 µM | 66.5 µM (inactive) | 23.3 µM (inactive) | 21.3 µM (inactive) | 7.8 µM (inactive) | 64.4 µM (inactive) | 41.1 µM (inactive) | 26.2 µM (inactive) | 32.7 µM (inactive) | 49 µM (inactive) | 2.06 µM (inactive) | > 100 µM (inactive) | 57 µM (inactive) | 53.5 µM (inactive) | 10.1 µM (inactive) | 
6 | Cc1ccc(NC(=O)c2cc(S(=O)(=O)Nc3nc4cccnc4[nH]3)c(SSc3cc(Cl)c(C(=O)Nc4ccc(C)cc4)cc3S(=O)(=O)Nc3nc4cccnc4[nH]3)cc2Cl)cc1 | > 100 µM (inactive) | > 100 µM (inactive) | > 100 µM (inactive) | > 100 µM | > 100 µM (inactive) | > 100 µM (inactive) | > 100 µM (inactive) | > 100 µM (inactive) | > 100 µM (inactive) | > 100 µM (inactive) | > 100 µM (inactive) | > 100 µM (inactive) | > 100 µM (inactive) | > 100 µM (inactive) | > 100 µM (inactive) | > 100 µM (inactive) | > 100 µM (inactive) | > 100 µM (inactive) | > 100 µM (inactive)
7 | C[N+]1(C)[C@@H]2CC[C@H]1C[C@@H](OC(=O)C(CO)c1ccccc1)C2 (stereo not given in full) [ATROPINE METHYLBROMIDE] | > 100 µM (inactive) | > 100 µM (inactive) | > 100 µM (inactive) | > 100 µM | > 100 µM (inactive) | > 100 µM (inactive) | > 100 µM (inactive) | > 100 µM (inactive) | > 100 µM (inactive) | > 100 µM (inactive) | > 100 µM (inactive) |  | > 100 µM (inactive) | > 100 µM (inactive) | > 100 µM (inactive) | > 100 µM (inactive) | > 100 µM (inactive) | > 100 µM (inactive) | > 100 µM (inactive)

Reference: ChEMBL document CHEMBL1201862, “PubChem BioAssay data set” (2004)
